Columns and labels:
HBsAg [1] = test: In vitro combination study, HBsAg CLIA, MacSynergy II; assay type: cell-based, hepatitis B virus
Procedure: In vitro combination studies were conducted using the method of Prichard & Shipman, 1990, Antiviral Res. 14(4-5):181-205, and Prichard, et al., MacSynergy II). The HepG2.2.15 cell culture system is a cell line derived from human hepatoblastoma HepG2 cells, that have been stably transfected with the adw2-subtype HBV genome (Sells, et al., 1987, Proc. Natl. Acad. Sci. U.S.A 84:1005-1009). HepG2.2.15 cells secrete Dane-like viral particles, produce HBV DNA, and produce the viral proteins, HBeAg and HBsAg.
Non-limiting examples of HBV RNA destabilizers are Compound A and Compound B. The EC50 values of these agents are shown in Table 12. Although inhibition of HBV DNA, RNA and proteins can be determined in the presence of the compounds of the invention and LNPs (both referred to herein as “agents”), the assay that can quantitatively measure the level of HBsAg was used in this study. To test the agent combinations, HepG2.2.15 (30,000 cells/well) were plated in 96 well tissue-culture treated microtiter plates in DMEM+L-Glutamine medium supplemented with 1% penicillin-streptomycin, 20 μg/mL geneticin (G418), 10% fetal bovine serum, and incubated in a humidified incubator at 37° C. and 5% CO2 overnight. The next day, the cells were replenished with fresh medium followed by the addition of compound of the invention (dissolved in 100% DMSO), and LNP (dissolved in 100% RPMI medium). The agents were added to cells in a checkerboard fashion. The microtiter cell plates were incubated for a total duration of 6 days in a humidified incubator at 37° C. and 5% CO2. On the 3rd day of incubation, the cells were replenished with fresh medium and agents. The serial dilutions spanned concentration ranges respective to the EC50 value of each agent, with the final DMSO concentration of the assay being 0.5%. In addition to combination testing of the agents in a checkerboard fashion, the compound and LNP were also tested alone.
Untreated positive control samples (0.5% DMSO in media) were included on each plate in multiple wells. Following a 6 day-incubation, media was removed from treated cells for use in an HBsAg chemiluminescence immunoassay (CLIA) (Autobio Diagnostics, Cat No. CL0310-2). An HBsAg standard curve was generated to verify that the levels of HBsAg quantification were within the detection limits of the assay. The remaining inhibitor-treated cells were assessed for cytotoxicity by determination of the intracellular adenosine triphosphate (ATP) using a Cell-Titer Glo reagent (Promega) as per manufacturers instructions and by microscopic analysis of the cells throughout the duration of inhibitor treatment. Cell viability was calculated as a percentage of the untreated positive control wells.
The plates were read using an EnVision multimode plate reader (PerkinElmer Model 2104). […] The RLU data from the single agent treated cells were analyzed using XL-Fit module in Microsoft Excel to determine EC50 values using a 4-parameter curve fitting algorithm.

isolated heart = test: Langendorff assay; details: any of the concentrations tested
From the text: (§1) The compounds of the invention disclosed in the present application were screened to evaluate their potency and toxicity profiles. Several compounds having desirable potency and toxicity profiles were identified in these screens.

HBsAg [2] = test: HBsAg assay; assay type: cell-based, hepatitis B virus; details: Hepatitis B virus, HepG2.2.15, 144 h, read-out: sAg EC50, μM, HepG2.2.15 cells, day 6
How it was run: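 HepG2.2.15 cells were treated with serially diluted compounds (0.5% DMSO), with medium and compound renewed after 2-3 days. Secreted HBsAg measured at day 6 by chemiluminescence immunoassay; EC50 from dose-response curves. Viability assessed in parallel by CellTiter-Glo.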

[3] = clearance from blood plasma in dogs; assay type: in vivo
From the text: as §1

HBV = HBV production assay; assay type: cell-based; details: Hepatitis B virus, 144 h; HepG2.2.15 cells, 6 days, HBV DNA in supernatant by qPCR
Procedure: HepG2.2.15 cells were maintained and seeded as described above. After administration of test compounds for 6 days, supernatant was collected and clarified by low speed centrifugation. HBV DNA was released from virion in the supernatant by incubating in lysis buffer (Roche, Catalog #07248431001). HBV DNA levels were quantified by qPCR/TaqMan assay. The nucleoside analog Entecavir (ETV) was used as a control to determine inhibition of HBV virion production in the supernatant. Table 4 illustrates EC50 values obtained by the HBV production assay for selected compounds.

[4] = Compound A 0.0001 μM, LNP-1 0.0025, 0.00079, 0.00025, 7.9E−05, 2.5E−05, 0 μM
[5] = Compound A 0.000316 μM, LNP-1 0.0025, 0.00079, 0.00025, 7.9E−05, 2.5E−05, 0 μM
[6] = Compound A 0.001 μM, LNP-1 0.0025, 0.00079, 0.00025, 7.9E−05, 2.5E−05, 0 μM
[7] = Compound A 0.00316 μM, LNP-1 0.0025, 0.00079, 0.00025, 7.9E−05, 2.5E−05, 0 μM
[8] = Compound A 0.1 μM, LNP-1 0.0025, 0.00079, 0.00025, 7.9E−05, 2.5E−05, 0 μM
[9] = Compound A 1.0E−05 μM, LNP-1 0.0025, 0.00079, 0.00025, 7.9E−05, 2.5E−05, 0 μM
[10] = Compound A 1.0E−05 μM, LNP-2 0.0025, 0.00079, 0.00025, 7.9E−05, 2.5E−05, 0 μM
[11] = Compound A 1.00E−06 μM, LNP-1 0.0025, 0.00079, 0.00025, 7.9E−05, 2.5E−05, 0 μM
[12] = Compound A 1.00E−06 μM, LNP-2 0.0025, 0.00079, 0.00025, 7.9E−05, 2.5E−05, 0 μM
[13] = Compound A 3.16E−06 μM, LNP-1 0.0025, 0.00079, 0.00025, 7.9E−05, 2.5E−05, 0 μM
[14] = Compound A 3.16E−06 μM, LNP-2 0.0025, 0.00079, 0.00025, 7.9E−05, 2.5E−05, 0 μM
[15] = Compound A 3.17E−05 μM, LNP-1 0.0025, 0.00079, 0.00025, 7.9E−05, 2.5E−05, 0 μM
[16] = Compound A 3.17E−05 μM, LNP-2 0.0025, 0.00079, 0.00025, 7.9E−05, 2.5E−05, 0 μM

COCCCOc1cc2c(nc1OC)-c1cc(=O)c(C(=O)O)cn1[C@H](C(C)C)C2 [Compound A]
Additive % Inhibition (HBsAg) versus negative control (HBsAg [1]; [4]): 47.52%
Avg % Inhibition (HBsAg) versus negative control (HBsAg [1]; [4]): 47.52%
Additive % Inhibition (HBsAg) versus negative control (HBsAg [1]; Compound A 0.0001 μM, LNP-2 0.0025, 0.00079, 0.00025, 7.9E−05, 2.5E−05, 0 μM): 48.07%
Avg % Inhibition (HBsAg) versus negative control (HBsAg [1]; Compound A 0.0001 μM, rows r14-r19 = LNP-2 0.0025, 0.00079, 0.00025, 7.9E−05, 2.5E−05, 0 μM): 48.07%
Additive % Inhibition (HBsAg) versus negative control (HBsAg [1]; [5]): 66.21%
Avg % Inhibition (HBsAg) versus negative control (HBsAg [1]; [5]): 66.21%
Additive % Inhibition (HBsAg) versus negative control (HBsAg [1]; Compound A 0.000316 μM, LNP-2 0.0025, 0.00079, 0.00025, 7.9E−05, 2.5E−05, 0 μM): 74.6%
Avg % Inhibition (HBsAg) versus negative control (HBsAg [1]; Compound A 0.000316 μM, rows r14-r19 = LNP-2 0.0025, 0.00079, 0.00025, 7.9E−05, 2.5E−05, 0 μM): 74.6%
Additive % Inhibition (HBsAg) versus negative control (HBsAg [1]; [6]): 84.38%
Avg % Inhibition (HBsAg) versus negative control (HBsAg [1]; [6]): 84.38%
Additive % Inhibition (HBsAg) versus negative control (HBsAg [1]; Compound A 0.001 μM, LNP-2 0.0025, 0.00079, 0.00025, 7.9E−05, 2.5E−05, 0 μM): 87.41%
Avg % Inhibition (HBsAg) versus negative control (HBsAg [1]; Compound A 0.001 μM, rows r14-r19 = LNP-2 0.0025, 0.00079, 0.00025, 7.9E−05, 2.5E−05, 0 μM): 87.41%
Additive % Inhibition (HBsAg) versus negative control (HBsAg [1]; [7]): 90.37%
Avg % Inhibition (HBsAg) versus negative control (HBsAg [1]; [7]): 90.37%
Additive % Inhibition (HBsAg) versus negative control (HBsAg [1]; Compound A 0.00316 μM, LNP-2 0.0025, 0.00079, 0.00025, 7.9E−05, 2.5E−05, 0 μM): 92.04%
Avg % Inhibition (HBsAg) versus negative control (HBsAg [1]; Compound A 0.00316 μM, rows r14-r19 = LNP-2 0.0025, 0.00079, 0.00025, 7.9E−05, 2.5E−05, 0 μM): 92.04%
Additive % Inhibition (HBsAg) versus negative control (HBsAg [1]; [8]): 92.38%
Avg % Inhibition (HBsAg) versus negative control (HBsAg [1]; [8]): 92.38%
Additive % Inhibition (HBsAg) versus negative control (HBsAg [1]; Compound A 0.1 μM, LNP-2 0.0025, 0.00079, 0.00025, 7.9E−05, 2.5E−05, 0 μM): 93.74%
Avg % Inhibition (HBsAg) versus negative control (HBsAg [1]; Compound A 0.1 μM, rows r14-r19 = LNP-2 0.0025, 0.00079, 0.00025, 7.9E−05, 2.5E−05, 0 μM): 93.74%
Additive % Inhibition (HBsAg) versus negative control (HBsAg [1]; [9]): 16.81%
Avg % Inhibition (HBsAg) versus negative control (HBsAg [1]; [9]): 16.81%
Additive % Inhibition (HBsAg) versus negative control (HBsAg [1]; [10]): 27.46%
Avg % Inhibition (HBsAg) versus negative control (HBsAg [1]; [10]): 27.46%
Additive % Inhibition (HBsAg) versus negative control (HBsAg [1]; [11]): 17.73%
Avg % Inhibition (HBsAg) versus negative control (HBsAg [1]; [11]): 17.73%
Additive % Inhibition (HBsAg) versus negative control (HBsAg [1]; [12]): 16%
Avg % Inhibition (HBsAg) versus negative control (HBsAg [1]; [12]): 16%
Additive % Inhibition (HBsAg) versus negative control (HBsAg [1]; [13]): 8.39%
Avg % Inhibition (HBsAg) versus negative control (HBsAg [1]; [13]): 8.39%
Additive % Inhibition (HBsAg) versus negative control (HBsAg [1]; [14]): 20.62%
Avg % Inhibition (HBsAg) versus negative control (HBsAg [1]; [14]): 20.62%
Additive % Inhibition (HBsAg) versus negative control (HBsAg [1]; [15]): 23.55%
Avg % Inhibition (HBsAg) versus negative control (HBsAg [1]; [15]): 23.55%
Additive % Inhibition (HBsAg) versus negative control (HBsAg [1]; [16]): 34.41%
Avg % Inhibition (HBsAg) versus negative control (HBsAg [1]; [16]): 34.41%
EC50 (HBsAg [1]; HepG2.2.15 cell culture, HBsAg quantitation by CLIA, read-out: 1st Inhibitor EC50): 1 nM

COCCCOc1cc2c(nc1OC)-c1cc(=O)c(C(=O)O)cn1[C@H](C(C)C)C2 (single isomer, unassigned) [Example 22]
effect on measured electrocardiogram parameters (isolated heart): no effect on any of the measured electrocardiogram parameters
EC50 (HBsAg [2]): 0.002 µM
clearance from blood plasma [3]: cleared relatively slowly

CC(C)[C@@H]1COc2cc(OCCCCO)c(Cl)cc2-c2cc(=O)c(C(=O)O)cn21 [drawing 617]
EC50 (HBV): 0.02 µM

COCCCOc1cc2c(cc1Cl)-c1cc(=O)c(C(=O)O)cn1[C@H](C(C)C)CO2 [drawing 614]
EC50 (HBV): 0.009 µM

COCCCOc1cc2c(nc1OC)-c1cc(=O)c(C(=O)O)cn1[C@H](C(C)C)C2 [drawing 615]
EC50 (HBV): 0.0004 µM

COc1cc2c(cc1Cl)-c1cc(=O)c(C(=O)O)cn1[C@H](C(C)C)CO2
EC50 (HBV): 0.03 µM

COCCOc1cc2c(cc1Cl)-c1cc(=O)c(C(=O)O)cn1C(C(C)C)CO2 (stereo not shown) [drawing 618]
EC50 (HBV): 0.046 µM

COc1cc2c(cc1Cl)-c1cc(=O)c(C(=O)O)cn1C(C(C)C)CO2 (stereo not shown)
EC50 (HBV): 0.077 µM

CC(C)(C)C1Cc2cc3c(cc2-c2cc(=O)c(C(=O)O)cn21)OCCCO3 (stereo not shown) [drawing 612]
EC50 (HBV): 0.007 µM

CC(C)[C@@H]1COc2cc(OCCCO)c(Cl)cc2-c2cc(=O)c(C(=O)O)cn21 [drawing 616]
EC50 (HBV): 0.007 µM

COc1cc2c(nc1OC)-c1cc(=O)c(C(=O)O)cn1C(C(C)C)C2 (stereo not shown) [drawing 619]
EC50 (HBV): 0.002 µM
